Reference: ChEMBL document CHEMBL2440005, “Discovery and structure-activity relationships of 6-(benzoylamino)benzoxaboroles as orally active anti-inflammatory agents” (Bioorg Med Chem Lett, 2013)
Activity calls are given as the source filed them. No cut-off for these calls is given here.

Columns and labels:
[1] = target: RAC-gamma serine/threonine-protein kinase (Homo sapiens) (UniProt Q9Y243); experiment: Inhibition of AKT3 (unknown origin) at 30 uM
Homo sapiens = species: Homo sapiens; experiment: Inhibition of PKA (unknown origin) at 30 uM
[2] = target: Dual specificity mitogen-activated protein kinase kinase 2 (Homo sapiens) (UniProt P36507); experiment: Inhibition of MEK2 (unknown origin) at 30 uM
[3] = target: Mitogen-activated protein kinase 13 (Homo sapiens) (UniProt O15264); experiment: Inhibition of p38delta (unknown origin) at 30 uM
[4] = target: Inhibitor of nuclear factor kappa-B kinase subunit epsilon (Homo sapiens) (UniProt Q14164); experiment: Inhibition of IKKepsilon (unknown origin) at 30 uM
PBMC [5] = experiment: Antiinflammatory activity in human PBMC assessed as inhibition of LPS-induced IL-6 release incubated for 15 mins prior to LPS-challenge measured after 24 hrs by HTRF assay; format: functional, cell-based
[6] = target: MAP kinase-activated protein kinase 2 (Homo sapiens) (UniProt P49137); experiment: Inhibition of MAPKAPK2 (unknown origin) at 30 uM
[7] = AUC (0 to 24 hrs) in mouse at 2 mg/kg, iv; format: ADME, organism-based; parameters: time < 24 hr, dose 2 mg/kg, route intravenous; conditions: plasma
[8] = target: Phosphatidylinositol 4,5-bisphosphate 3-kinase catalytic subunit alpha isoform (Homo sapiens) (UniProt P42336); experiment: Inhibition of PI3Kalpha (unknown origin) at 30 uM
[9] = target: Serine/threonine-protein kinase TBK1 (Homo sapiens) (UniProt Q9UHD2); experiment: Inhibition of TBK1 (unknown origin) at 30 uM
PBMC [10] = experiment: Antiinflammatory activity in human PBMC assessed as inhibition of LPS-induced IL-1beta release incubated for 15 mins prior to LPS-challenge measured after 24 hrs by HTRF assay; format: functional, cell-based
Mus musculus [11] = experiment: Antiinflammatory activity in mouse assessed as inhibition of LPS-induced TNF-alpha production at 100 mg/kg, po administered 1 hr prior to LPS challenge measured after 1 hr; format: functional, organism-based; parameters: dose 100 mg/kg
Mus musculus [12] = experiment: Antiinflammatory activity in mouse assessed as inhibition of LPS-induced TNF-alpha production at 30 mg/kg, po administered 1 hr prior to LPS challenge measured after 1 hr; format: functional
[13] = Volume of distribution at steady state in mouse at 2 mg/kg, iv; format: ADME, organism-based; parameters: dose 2 mg/kg, route intravenous; conditions: in vivo, read-out: Vdss
Mus musculus [14] = experiment: Antiinflammatory activity in po dosed mouse assessed as inhibition of LPS-induced TNF-alpha production administered 1 hr prior to LPS challenge measured after 1 hr; format: functional, organism-based
[15] = target: Prostaglandin G/H synthase 2 (Homo sapiens) (UniProt P35354); experiment: Inhibition of COX2 (unknown origin) up to 25 uM
[16] = Terminal half life in mouse at 2 mg/kg, iv; format: ADME, organism-based; parameters: dose 2 mg/kg, route intravenous; conditions: in vivo, read-out: beta t1/2 (converted)
[17] = target: Tyrosine-protein kinase JAK2 (Homo sapiens) (UniProt O60674); experiment: Inhibition of JAK2 (unknown origin) at 30 uM
[18] = target: Inhibitor of nuclear factor kappa-B kinase subunit alpha (Homo sapiens) (UniProt O15111); experiment: Inhibition of IKKalpha (unknown origin) at 30 uM
Mus musculus [19] = experiment: Antiinflammatory activity in mouse assessed as inhibition of LPS-induced IL-6 production at 10 mg/kg, po administered 1 hr prior to LPS challenge measured after 1 hr; format: functional
[20] = target: Mitogen-activated protein kinase 9 (Homo sapiens) (UniProt P45984); experiment: Inhibition of JNK2 (unknown origin) at 30 uM
Mus musculus [21] = experiment: Antiinflammatory activity in mouse assessed as inhibition of LPS-induced TNF-alpha production at 10 mg/kg, po administered 1 hr prior to LPS challenge measured after 1 hr; format: functional
PBMC [22] = experiment: Cytotoxicity against LPS-stimulated human PBMC assessed as growth inhibition by MTT assay; format: cell-based
[23] = target: Mitogen-activated protein kinase kinase kinase 8 (Homo sapiens) (UniProt P41279); experiment: Inhibition of MAP3K8 (unknown origin) at 30 uM
Mus musculus [24] = experiment: Toxicity in mouse assessed as change in body weight at 30 mg/kg, po qd administered every other day for 20 days relative to untreated control; format: organism-based; parameters: dose 30 mg/kg, route oral; conditions: in vivo, 480 h
[25] = target: Interleukin-1 receptor-associated kinase 1 (Homo sapiens) (UniProt P51617); experiment: Inhibition of IRAK1 (unknown origin) at 30 uM
[26] = Oral bioavailability in mouse at 4 mg/kg; format: ADME, organism-based; conditions: in vivo
[27] = target: Phosphatidylinositol 4,5-bisphosphate 3-kinase catalytic subunit beta isoform (Homo sapiens) (UniProt P42338); experiment: Inhibition of PI3Kbeta (unknown origin) at 30 uM
[28] = target: Rho-associated protein kinase 2 (Homo sapiens) (UniProt O75116); experiment: Inhibition of ROCK2 (unknown origin) at 30 uM
PBMC [29] = experiment: Antiinflammatory activity in human PBMC assessed as inhibition of LPS-induced TNFalpha release incubated for 15 mins prior to LPS-challenge measured after 24 hrs by HTRF assay; format: functional, cell-based
[30] = Cmax in mouse at 4 mg/kg, po; format: ADME, organism-based; parameters: dose 4 mg/kg, route oral; conditions: in vivo
[31] = target: Mitogen-activated protein kinase 14 (Homo sapiens) (UniProt Q16539); experiment: Inhibition of p38alpha (unknown origin) at 30 uM
[32] = target: Mitogen-activated protein kinase 8 (Homo sapiens) (UniProt P45983); experiment: Inhibition of JNK1 (unknown origin) at 30 uM
[33] = target: Rho-associated protein kinase 1 (Homo sapiens) (UniProt Q13464); experiment: Inhibition of ROCK1 (unknown origin) at 30 uM
[34] = target: Mitogen-activated protein kinase 10 (Homo sapiens) (UniProt P53779); experiment: Inhibition of JNK3 (unknown origin) at 30 uM
[35] = target: Dual specificity mitogen-activated protein kinase kinase 4 (Homo sapiens) (UniProt P45985); experiment: Inhibition of MKK4 (unknown origin) at 30 uM
[36] = target: MAP kinase-activated protein kinase 5 (Homo sapiens) (UniProt Q8IW41); experiment: Inhibition of MAPKAPK5 (unknown origin) at 30 uM
[37] = target: Mitogen-activated protein kinase 1 (Homo sapiens) (UniProt P28482); experiment: Inhibition of ERK2 (unknown origin) at 30 uM
[38] = target: Interleukin-1 receptor-associated kinase 4 (Homo sapiens) (UniProt Q9NWZ3); experiment: Inhibition of IRAK4 (unknown origin) at 30 uM
[39] = target: RAC-beta serine/threonine-protein kinase (Homo sapiens) (UniProt P31751); experiment: Inhibition of AKT2 (unknown origin) at 30 uM
[40] = Tmax in mouse at 4 mg/kg, po; format: ADME, organism-based; parameters: dose 4 mg/kg, route oral; conditions: in vivo
[41] = target: Dual specificity mitogen-activated protein kinase kinase 6 (Homo sapiens) (UniProt P52564); experiment: Inhibition of MKK6 (unknown origin) at 30 uM
[42] = AUC (0 to 24 hrs) in mouse at 4 mg/kg, po; format: ADME, organism-based; parameters: time < 24 hr, dose 4 mg/kg, route oral; conditions: plasma
[43] = target: Mitogen-activated protein kinase kinase kinase 7 (Homo sapiens) (UniProt O43318); experiment: Inhibition of TAK1 (unknown origin) at 30 uM

Chain of Dual specificity mitogen-activated protein kinase kinase 6 (Homo sapiens) (P52564 whole entry): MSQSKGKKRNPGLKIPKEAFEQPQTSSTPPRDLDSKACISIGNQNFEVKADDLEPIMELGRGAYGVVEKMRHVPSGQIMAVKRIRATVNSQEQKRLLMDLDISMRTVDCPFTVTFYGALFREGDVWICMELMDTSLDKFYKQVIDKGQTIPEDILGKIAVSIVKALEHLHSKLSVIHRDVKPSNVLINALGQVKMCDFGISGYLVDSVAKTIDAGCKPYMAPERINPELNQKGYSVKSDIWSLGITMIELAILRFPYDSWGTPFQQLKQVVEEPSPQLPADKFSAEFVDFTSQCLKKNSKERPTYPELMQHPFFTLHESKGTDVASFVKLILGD
Chain of Interleukin-1 receptor-associated kinase 4 (Homo sapiens) (Q9NWZ3 whole entry): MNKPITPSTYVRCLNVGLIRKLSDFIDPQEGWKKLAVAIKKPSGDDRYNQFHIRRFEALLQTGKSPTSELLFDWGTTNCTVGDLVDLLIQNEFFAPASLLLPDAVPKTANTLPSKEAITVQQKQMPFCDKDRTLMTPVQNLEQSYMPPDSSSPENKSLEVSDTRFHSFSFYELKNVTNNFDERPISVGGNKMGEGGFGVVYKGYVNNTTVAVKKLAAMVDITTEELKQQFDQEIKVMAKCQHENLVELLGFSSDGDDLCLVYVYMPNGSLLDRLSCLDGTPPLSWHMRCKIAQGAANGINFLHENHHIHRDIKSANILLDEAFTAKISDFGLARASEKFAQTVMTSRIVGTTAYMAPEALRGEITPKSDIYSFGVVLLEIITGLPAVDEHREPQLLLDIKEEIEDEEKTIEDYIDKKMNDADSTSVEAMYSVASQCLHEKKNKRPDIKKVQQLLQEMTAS
Chain of Mitogen-activated protein kinase 10 (Homo sapiens) (P53779 whole entry): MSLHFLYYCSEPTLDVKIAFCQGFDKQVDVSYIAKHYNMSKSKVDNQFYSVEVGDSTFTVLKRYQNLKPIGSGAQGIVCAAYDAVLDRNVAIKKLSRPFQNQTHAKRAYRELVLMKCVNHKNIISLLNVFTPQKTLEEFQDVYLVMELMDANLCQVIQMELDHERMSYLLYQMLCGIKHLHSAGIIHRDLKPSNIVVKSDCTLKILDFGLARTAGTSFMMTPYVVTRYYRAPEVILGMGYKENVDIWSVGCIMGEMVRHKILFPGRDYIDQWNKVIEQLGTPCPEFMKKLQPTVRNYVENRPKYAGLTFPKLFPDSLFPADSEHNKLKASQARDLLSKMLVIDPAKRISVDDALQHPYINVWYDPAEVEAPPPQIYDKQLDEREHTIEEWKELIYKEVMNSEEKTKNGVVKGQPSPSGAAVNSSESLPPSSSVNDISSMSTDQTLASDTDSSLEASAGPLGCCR
Chain of Prostaglandin G/H synthase 2 (Homo sapiens) (P35354 whole entry): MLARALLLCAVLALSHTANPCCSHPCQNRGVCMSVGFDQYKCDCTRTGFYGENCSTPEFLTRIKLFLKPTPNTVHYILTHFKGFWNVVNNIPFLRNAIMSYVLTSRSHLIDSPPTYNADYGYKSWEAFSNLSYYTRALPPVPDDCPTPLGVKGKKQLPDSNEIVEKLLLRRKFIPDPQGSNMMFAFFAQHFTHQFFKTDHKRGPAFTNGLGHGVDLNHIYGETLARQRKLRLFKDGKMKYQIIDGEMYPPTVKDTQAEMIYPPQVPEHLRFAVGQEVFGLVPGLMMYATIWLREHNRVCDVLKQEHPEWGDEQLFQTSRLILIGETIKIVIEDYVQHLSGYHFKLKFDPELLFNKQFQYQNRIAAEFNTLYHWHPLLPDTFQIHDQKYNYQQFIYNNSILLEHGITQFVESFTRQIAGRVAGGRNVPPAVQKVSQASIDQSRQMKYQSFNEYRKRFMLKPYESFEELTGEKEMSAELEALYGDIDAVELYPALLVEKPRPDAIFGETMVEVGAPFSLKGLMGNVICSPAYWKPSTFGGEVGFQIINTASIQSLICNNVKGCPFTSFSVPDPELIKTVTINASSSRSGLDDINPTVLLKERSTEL
Chain of Mitogen-activated protein kinase 14 (Homo sapiens) (Q16539 whole entry): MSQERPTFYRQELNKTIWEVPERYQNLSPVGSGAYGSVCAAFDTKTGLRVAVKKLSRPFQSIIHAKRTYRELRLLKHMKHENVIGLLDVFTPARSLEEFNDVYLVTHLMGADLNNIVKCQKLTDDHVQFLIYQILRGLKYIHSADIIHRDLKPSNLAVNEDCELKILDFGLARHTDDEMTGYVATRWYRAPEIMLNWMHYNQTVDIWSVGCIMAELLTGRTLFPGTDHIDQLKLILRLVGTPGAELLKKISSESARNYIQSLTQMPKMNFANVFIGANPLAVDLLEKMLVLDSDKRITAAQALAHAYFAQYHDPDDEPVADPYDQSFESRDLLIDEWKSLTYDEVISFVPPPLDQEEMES
Chain of Mitogen-activated protein kinase 8 (Homo sapiens) (P45983 whole entry): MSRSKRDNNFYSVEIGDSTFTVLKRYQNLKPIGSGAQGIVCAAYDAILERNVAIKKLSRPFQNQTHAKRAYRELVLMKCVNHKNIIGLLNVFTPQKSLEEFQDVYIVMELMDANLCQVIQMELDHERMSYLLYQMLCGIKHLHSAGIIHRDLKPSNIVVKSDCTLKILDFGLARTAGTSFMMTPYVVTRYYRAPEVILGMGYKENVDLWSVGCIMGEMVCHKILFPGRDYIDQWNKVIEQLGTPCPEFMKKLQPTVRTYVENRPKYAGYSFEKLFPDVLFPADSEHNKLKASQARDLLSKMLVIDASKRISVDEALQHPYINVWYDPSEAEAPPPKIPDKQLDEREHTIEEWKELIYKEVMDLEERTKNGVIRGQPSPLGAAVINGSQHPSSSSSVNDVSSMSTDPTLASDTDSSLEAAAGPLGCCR
Chain of Serine/threonine-protein kinase TBK1 (Homo sapiens) (Q9UHD2 whole entry): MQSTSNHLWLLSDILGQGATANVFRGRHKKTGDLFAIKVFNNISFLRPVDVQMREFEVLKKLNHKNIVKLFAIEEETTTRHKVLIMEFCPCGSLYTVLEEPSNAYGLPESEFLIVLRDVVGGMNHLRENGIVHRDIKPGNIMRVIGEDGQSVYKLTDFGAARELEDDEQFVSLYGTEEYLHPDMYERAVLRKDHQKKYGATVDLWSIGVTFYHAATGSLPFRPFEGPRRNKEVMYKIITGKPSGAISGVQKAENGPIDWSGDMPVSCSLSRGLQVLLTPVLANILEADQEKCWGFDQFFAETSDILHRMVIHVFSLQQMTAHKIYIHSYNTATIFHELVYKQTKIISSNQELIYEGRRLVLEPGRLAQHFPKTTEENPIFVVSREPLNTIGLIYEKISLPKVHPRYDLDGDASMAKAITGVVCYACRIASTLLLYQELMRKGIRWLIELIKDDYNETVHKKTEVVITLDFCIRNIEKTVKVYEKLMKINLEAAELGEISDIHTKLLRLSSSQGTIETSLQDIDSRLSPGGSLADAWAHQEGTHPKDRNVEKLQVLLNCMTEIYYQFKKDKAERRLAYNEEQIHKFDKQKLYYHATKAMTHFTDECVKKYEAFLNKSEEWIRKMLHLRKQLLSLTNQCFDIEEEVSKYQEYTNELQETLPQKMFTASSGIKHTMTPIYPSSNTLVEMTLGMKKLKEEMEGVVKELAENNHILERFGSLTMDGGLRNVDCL
Chain of RAC-gamma serine/threonine-protein kinase (Homo sapiens) (Q9Y243 whole entry): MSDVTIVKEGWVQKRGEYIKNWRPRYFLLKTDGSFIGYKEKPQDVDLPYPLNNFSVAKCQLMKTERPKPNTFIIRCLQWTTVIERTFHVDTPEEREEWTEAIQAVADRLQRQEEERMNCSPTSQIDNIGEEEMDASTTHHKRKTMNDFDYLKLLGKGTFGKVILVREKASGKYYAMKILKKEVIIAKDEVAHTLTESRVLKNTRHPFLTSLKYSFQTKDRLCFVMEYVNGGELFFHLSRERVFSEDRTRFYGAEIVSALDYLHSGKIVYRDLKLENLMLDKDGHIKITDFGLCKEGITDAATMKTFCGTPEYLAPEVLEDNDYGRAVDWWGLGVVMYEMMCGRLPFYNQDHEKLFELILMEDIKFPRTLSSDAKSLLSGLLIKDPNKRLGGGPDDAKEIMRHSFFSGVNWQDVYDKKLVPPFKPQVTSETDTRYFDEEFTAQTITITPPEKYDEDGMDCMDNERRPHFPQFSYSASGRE
Chain of Dual specificity mitogen-activated protein kinase kinase 2 (Homo sapiens) (P36507 whole entry): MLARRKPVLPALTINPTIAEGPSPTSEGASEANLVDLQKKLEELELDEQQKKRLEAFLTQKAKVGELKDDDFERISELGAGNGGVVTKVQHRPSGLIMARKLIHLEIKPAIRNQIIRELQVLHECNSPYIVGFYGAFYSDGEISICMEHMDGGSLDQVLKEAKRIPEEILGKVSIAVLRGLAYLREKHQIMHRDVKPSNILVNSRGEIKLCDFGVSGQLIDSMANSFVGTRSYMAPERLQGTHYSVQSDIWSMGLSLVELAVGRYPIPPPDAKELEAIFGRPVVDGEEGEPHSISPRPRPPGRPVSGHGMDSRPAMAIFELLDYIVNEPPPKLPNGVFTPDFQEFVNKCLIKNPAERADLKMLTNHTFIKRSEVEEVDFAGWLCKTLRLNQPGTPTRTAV
Chain of Dual specificity mitogen-activated protein kinase kinase 4 (Homo sapiens) (P45985 whole entry): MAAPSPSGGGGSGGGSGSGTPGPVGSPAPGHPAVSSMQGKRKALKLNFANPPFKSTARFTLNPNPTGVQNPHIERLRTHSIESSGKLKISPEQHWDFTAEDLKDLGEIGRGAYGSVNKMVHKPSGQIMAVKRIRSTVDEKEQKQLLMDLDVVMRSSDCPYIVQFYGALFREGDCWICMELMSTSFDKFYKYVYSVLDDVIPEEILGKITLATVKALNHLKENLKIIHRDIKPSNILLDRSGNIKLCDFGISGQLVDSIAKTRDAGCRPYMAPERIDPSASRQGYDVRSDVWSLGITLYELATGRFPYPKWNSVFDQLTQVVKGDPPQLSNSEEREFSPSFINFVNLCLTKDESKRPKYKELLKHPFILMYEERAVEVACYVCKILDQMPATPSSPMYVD

inhibition [1]: inactive
inhibition (Homo sapiens): inactive
inhibition [2]: inactive
inhibition [3]: inactive
inhibition [4]: inactive
inhibition [6]: inactive
AUC(0-t) at 24 h [7]: 43.4 µg·h/mL
inhibition [8]: inactive
inhibition [9]: inactive
Vd [13]: 0.41 L/kg
inhibition [15]: inactive
half-life [16]: 7.85 h
inhibition [17]: inactive
inhibition [18]: inactive
inhibition [20]: inactive
inhibition [23]: inactive
inhibition [25]: inactive
bioavailability [26]: 71%
inhibition [27]: inactive
inhibition [28]: inactive
Cmax [30]: 5.65 µg/mL
inhibition [31]: inactive
inhibition [32]: inactive
inhibition [33]: inactive
inhibition [34]: inactive
inhibition [35]: inactive
inhibition [36]: inactive
inhibition [37]: inactive
inhibition [38]: inactive
inhibition [39]: inactive
Tmax [40]: 4 h
inhibition [41]: inactive
AUC(0-t) at 24 h [42]: 70.1 µg·h/mL
inhibition [43]: inactive
SMILES: O=C(Nc1ccc2c(c1)B(O)OC2)c1c(C(F)(F)F)ccc(Cl)c1F
IC50 (PBMC [5]): 0.32 µM
IC50 (PBMC [10]): 0.19 µM
inhibition (Mus musculus [11]): Active
inhibition in vivo at 30 mg/kg (Mus musculus [12]): 80%
inhibition (Mus musculus [14]): Dose-dependent effect
inhibition in vivo at 10 mg/kg (Mus musculus [19]): 75%
inhibition in vivo at 10 mg/kg (Mus musculus [21]): 60%
IC50 (PBMC [22]): > 100 µM
Activity (Mus musculus [24]): Non-toxic
IC50 (PBMC [29]): 0.5 µM
